Assay results reported in patent US10119972B2, “Reactive labelling compounds and uses thereof” (Academia Sinica, priority 2014, dated 2018).
“Also recorded” adds a separate entry of the source.

How the values were obtained:
[1] = Absorption and fluorescence spectroscopy under simulated physiological conditions; type: physicochemical; conditions: for Absorption (λmax, nm) / Stokes shift / Emission (λmax, nm) / ε (M^−1cm^−1), extinction coefficient / Φf, fluorescence quantum yield: PBS buffer containing 10% DMSO, pH 7.4; for Emission (λmax, nm): excitation at 330 nm; for ε (M^−1cm^−1), extinction coefficient: measured at 330 nm; for Φf, fluorescence quantum yield: quinine sulfate (Φf = 0.54 ± 0.03) as standard; for increase in quantum yield compared to unreacted 101: triazole product vs 101
Method: Formation of triazoles 111 and 112 were accompanied by a significant increase in fluorescence intensity with a large Stokes shift into a standard range for coumarin emission (FIG. 16a).
FIG. 16 describes (a) Absorption and Fluorescence emission spectra (λex=330 nm) of 101 (black), 111 (blue) and 112 (red) (45 μM, PBS buffer containing 10% DMSO, pH 7.4). (b) Time course of normalized fluorescence intensity at 435 nm (λex=330 nm) for the ligation reaction of 101 (30 μM) with N-azidoacetylmannosamine (30 μM) in PBS buffer containing 10% DMSO.

[2] = Stability in presence of 3-mercaptopropionic acid by 1H-NMR; type: physicochemical; conditions: 25 mM in CDCl3 with 3-mercaptopropionic acid (32 mM), 25° C., 24 h
Method: A potential problematic side reaction of cyclooctynes is the addition with proteinic or endogenous thiols to the corresponding vinyl sulfides. To test whether potential non-specific stainings of 101 and the corresponding triazole 111 may occur due to additions of the SH groups to the triple bond or double bond by proteinic or endogenous thiols, the experiment was performed by incubation of 101 and 111 with 3-mercaptopropionic acid in CDCl3 (FIGS. 25 and 26).
A solution of compound 101 and compound 111 (25 mM in CDCl3) was incubated with a solution of 3-mercaptopropionic acid (32 mM in CDCl3) at room temperature (25° C.).
FIG. 25 show ^1H-NMR spectrum in CDCl3 of compound 101 and 3-mercaptopropionic acid alone, and ^1H-NMR spectrum of compound 101 was treated with 3-mercaptopropionic acid at 25° C. for 0 h, 2 h and 24 h.

CL1-5 cells = experiment: Dual fluorescence labeling in cells (SPAAC with CuAAC), confocal microscopy; type: cell-based; conditions: CL1-5 cells with Ac4ManNAl and Ac4GlcNAz; 100 μM coumOCT, 0.1 μM AzBOCEt
Method: A dual-labeling experiment was performed using SPAAC in combination with CuAAC for the concurrent fluorescence labeling of two different metabolically incorporated glycoconjugates. Peracetylated N-acetylmannosamine (Ac4ManNAc) and peracetylated N-acetylglucosamine (Ac4GlcNAc) were employed as the control sugars. ManNAc is converted metabolically to sialic acid that is found as a terminal monosaccharide of glycoproteins and glycolipids in cell, whereas GlcNAz is an internal monosaccharide that abundant in the N- and O-linked glycans produced in the endoplasmic reticulum and Golgi. CL1-5 cells were incubated in the presence of both alkyne-containing sugar (Ac4ManNAl) and azido-containing sugar (Ac4GlcNAz) for three days. The cells were stained by SPAAC with coumOCT (for azido sugars), followed by CuAAC with AzBOCEt^6j (for alkynyl sugars), and investigated by confocal microscopy (FIG. 24).
(A) Illustration of the cell labeling experiments using Ac4ManNAl, Ac4GlcNAz, 101 and AzBOCEt. CL1-5 cells were incubated with 100 μM of Ac4ManNAl and Ac4GlcNAz or control sugars (Ac4ManNAc and Ac4GlcNAc) for 3 days, which were treated with 100 μM of probe 101 for 0.5 h under SPAAC conditions, and then incubated with 0.1 μM of AzBOCEt for 1 h under CuAAC conditions. (B) Dual fluorescence imaging in CL1-5 cells. […]

O=C(Cn1nnc2c1CCCCc1cc3ccc(=O)oc3cc1-2)NC1C(O)OC(CO)[C@@H](O)C1O (stereo partly drawn) [Compound 112, N-[2-(11-Oxo-4,6,7,11-tetrahydrochromeno[7′,6′:3,4]cycloocta[1,2-d][1,2,3]triazol-3(5H)-yl)]acetamido-2-deoxy-α,β-D-mannopyranose]
Absorption (λmax, nm) [1]: 330 nm | Stokes shift [1]: 7320 cm⁻¹ | Emission (λmax, nm) [1]: 435 nm | ε (M^−1cm^−1), extinction coefficient [1]: 10800 M⁻¹ cm⁻¹ | Φf, fluorescence quantum yield [1]: 0.21 | increase in quantum yield compared to unreacted 101 [1]: 20 fold

O=c1ccc2cc3c(cc2o1)-c1nnn(Cc2ccccc2)c1CCCC3 [Compound 111, 10-Benzyl-6,7,8,9-tetrahydro-cyclooctatriazolo[5,4-g]chromen-2(2H)-one]
Absorption (λmax, nm) [1]: 328 nm | Stokes shift [1]: 7500 cm⁻¹ | Emission (λmax, nm) [1]: 435 nm | ε (M^−1cm^−1), extinction coefficient [1]: 12200 M⁻¹ cm⁻¹ | Φf, fluorescence quantum yield [1]: 0.23 | increase in quantum yield compared to unreacted 101 [1]: 20 fold | thiol-yne or thiol-ene addition / stability in the presence of thiols [2]: inactive; also recorded: high stability

CCOC(=O)C1=C(C)C2=C(c3cc(N=[N+]=[N-])ccc3OC)c3c(C)c(C(=O)OCC)c(C)n3[B-](F)(F)[N+]2=C1C [Az10, 8-(5-Azido-2-methoxyphenyl)-2,6-diethoxycarbonyl-4,4-difluoro-1,3,5,7-tetramethyl-4-bora-3a,4a-diaza-s-indacene]
localization of labeled glycoconjugates (CL1-5 cells): observed clearly on the cell surface and partially in the cytosol
